System: Jurkat cells
Test: Confocal microscopy of stained Jurkat cells with and without CPT treatment
Format: cell-based
Text: FIGS. 5A-5D are confocal microscopy images of F1-EA staining Jurkat cell samples without the washing step. FIGS. 5A and 5C display the FITC channel; FIGS. 5B and 5D display the phase contrast channel.
FIGS. 6A-6D are micrographs depicting representative confocal images.
FIGS. 8A-8D are a series of micrographs depicting confocal microscopy images of Rhodamine B and Rd-EA staining Jurkat cell samples. FIGS. 8A and 8B show Rhodamine B stained cells while FIGS. 8C and 8D show Rd-EA stained cells. FIGS. 8A and 8C are CPT treated cells while
The specificity of F1-EA for apoptotic cells were further validated through a costaining experiment with the R-phycoerythrin labeled annexin V (AV-PE, yellow emission). […] The flow cytometry result was further validated with confocal microscopy analysis.

Molecule: CCN(CC)c1ccc2c(-c3ccccc3C(=O)O)c3ccc(=[N+](CC)CC)cc-3oc2c1.[Cl-] [Rhodamine B]
- selectivity of staining for apoptotic cells (confocal images, CPT-treated vs untreated Jurkat cells): no selectivity

B1: AV-PE: R-phycoerythrin labeled annexin V (protein, UniProt P08758 2-320, looked up)
Annexin A5: AQVLRGTVTDFPGFDERADAETLRKAMKGLGTDEESILTLLTSRSNAQRQEISAAFKTLFGRDLLDDLKSELTGKFEKLIVALMKPSRLYDAYELKHALKGAGTNEKVLTEIIASRTPEELRAIKQVYEEEYGSSLEDDVVGDTSGYYQRMLVVLLQANRDPDAGIDEAQVEQDAQALFQAGELKWGTDEEKFITIFGTRSVSHLRKVFDKYMTISGFQIEETIDRETSGNLEQLLLAVVKSIRSIPAYLAETLYYAMKGAGTDDHTLIRVMVSRSEIDLFNIRKEFRKNFATSLYSMIKGDTSGDYKKALLLLCGEDD
modifications: R-phycoerythrin label
notes: R-phycoerythrin labeled annexin V
- location of the stain in CPT-treated cells (confocal image, CPT-treated Jurkat cells): membrane location

— patent US9119874B2, “Cell-penetrating markers of apoptosis” (TRUSTEES OF BOSTON COLLEGE, priority 2012, dated 2015)
